From PMC12571071, “Preventing neuropathy and improving anticancer chemotherapy with a carbazole-based compound” (Science Advances, 2025) come the findings set out here.

Read-outs that look alike come from different tables or passages of the source.

In data set [1] the test system is adult mouse DRG neurons. In words: Axonal degeneration index in dissociated adult mouse DRG neurons. To be noted: DIV 12 neurons, 72 h; Carba1 12 μM, PTX 50 nM, Cis 10 μM, Bort 100 nM.
Method: After 4 days in vitro (DIV), at least 30% of medium was changed, and 10 μM AraC (cytosine β-D-arabino furanoside) was added to suppress nonneuronal growth. […] Neurons were fixed with 4% paraformaldehyde (PFA), washed with PBS, permeabilized with PBS–0.01% Triton X-100 for 15 min, and blocked with PBS–10% FBS for 1 hour before being stained overnight at 4°C with neurofilament antibody. Following PBS washes, secondary antibody (goat anti-chicken Alexa Fluor 488) was applied for 2 hours at room temperature (R.T.). Following additional PBS washes, coverslips were mounted with Fluoromount-G.
Images of random fields of dissociated adult DRG neurons, immunostained with antineurofilament or anti-TUBB3 antibodies, were captured using a 20× objective lens (Olympus IX81) and a Sensicam QE monochrome camera (Cooke Corporation). Degeneration masks were generated on the basis of the method described by Gerdts et al. ([66]). Axonal degeneration was quantified by measuring the total axonal area and fragmented axonal area in the same field, using degeneration masks as shown in fig. […] Images were processed in Fiji using global autothresholding, binarization, and the particle analyzer module to detect fragments (20 to 10,000 pixels), as previously described ([17]). The degeneration index was calculated as the ratio of fragmented axonal area to total axonal area.
Data set [2] relates to HeLa cells. In words: HeLa cell viability (PrestoBlue) assay, 72 h. Format: cell-based, human. Particulars: for GI50 FK866 with carbazole/GI50 FK866 / GI50 PTX/GI50 PTX with carbazole: ratio at the highest noncytotoxic dose of carbazole analog; for GI50 FK866 with carbazole/GI50 FK866: readout of NAMPT activation; for GI50 PTX/GI50 PTX with carbazole: synergy with PTX; for fold reduction of GI50 by addition of 12 μM Carba1: drug with 12 μM Carba1 vs drug alone. As for the experimental part: The human HeLa cell line was tested negative for mycoplasma contamination. HeLa cells were grown in RPMI 1640 medium supplemented with penicillin/streptomycin (100 μg/ml) and 10% FBS and maintained in a humidified incubator at 37°C and 5% CO2.
Cell viability was analyzed using the colorimetric PrestoBlue assay. Cells were seeded in 96-well microplates at a density of 7500 cells per well, allowed to adhere for 24 hours, and treated for 72 hours with either DMSO or drugs at indicated concentrations. PrestoBlue (10 μl) was then added to each well, followed by a 30-min incubation. Fluorescence was measured using a FLUOstar Optima microplate reader (excitation, 544 nm; emission, 580 nm; BMG Labtech).

[3] abbreviates: Homo sapiens, HeLa cells, 72 h, PrestoBlue, drug applied alone, read-out: GI50, drug alone.
[4] abbreviates: cell viability, compound alone, read-out: GI50.

For the compound `CC(C)C[C@H](NC(=O)[C@H](Cc1ccccc1)NC(=O)c1cnccn1)B(O)O` [Bort, bortezomib, reference compound], in data set [1], the “axonal fragmentation / degeneration, agent alone” value is reported as “induced significant axonal fragmentation”. Further, the GI50 (usually the concentration that inhibits growth by half) in data set [2] (setting [3]) worked out at 0.0359 ± 0.0037 µM; in data set [2] (Homo sapiens, HeLa cells, 72 h, with 12 μM Carba1, read-out: GI50, drug in combination with Carba1), 0.04 ± 0.0033 µM.

Take `N.N.[Cl][Pt][Cl]` [Cis, cisplatin, reference compound]: in data set [2] (HeLa cells, 72 h, PrestoBlue, drug applied alone, read-out: GI50, drug alone), the GI50 is 0.167 ± 0.0308 µM.

`Cc1cc(-n2cccc2)c(C)c2c1[nH]c1ccc(Br)cc12` [Compound 2]: in data set [2] (setting [4]), the GI50 came to 16 µM. For the same compound, in data set [2], the “GI50 FK866 with carbazole/GI50 FK866” value is given as 2 and the “GI50 PTX/GI50 PTX with carbazole” value amounted to 1.6.

Turning to `CCc1cccc2c1[nH]c1c(C)cc(-n3cccc3)c(C)c12` [Compound 3], the 50% growth inhibitory concentration (GI50) in data set [2] (setting [4]) was > 25 µM. Also, in data set [2], the “GI50 FK866 with carbazole/GI50 FK866” value came to 1.5 and the “GI50 PTX/GI50 PTX with carbazole” value stood at 1.5.

With `Cc1cc(-n2cccc2)c(C)c2c1[nH]c1cc(Cl)ccc12` [Compound 4], the GI50 in data set [2] (setting [4]) came to 15 µM. Also, in data set [2], the “GI50 FK866 with carbazole/GI50 FK866” value came out at 0.93 and the “GI50 PTX/GI50 PTX with carbazole” value came out at 1.8.

Consider `Cc1cc(-n2ccc(CN(C)C)c2)c(C)c2c1[nH]c1ccc(Cl)cc12` [Compound 6], for which the concentration for 50% growth inhibition (GI50) in data set [2] (setting [4]) amounted to 12.7 µM. In addition, in data set [2], the “GI50 FK866 with carbazole/GI50 FK866” value came to 1 and the “GI50 PTX/GI50 PTX with carbazole” value came to 0.8.

Take `CCNCc1ccn(-c2cc(C)c3[nH]c4ccc(Cl)cc4c3c2C)c1` [Compound 7]: the GI50 in data set [2] (setting [4]) came out at 10.3 µM. For the same compound, in data set [2], the “GI50 FK866 with carbazole/GI50 FK866” value came to 1 and the “GI50 PTX/GI50 PTX with carbazole” value is given as 0.77.

As to `Cc1cc(-n2ccc(CO)c2)c(C)c2c1[nH]c1ccc(Cl)cc12` [Compound 8], the GI50 in data set [2] (setting [4]) is 1 µM. Moreover, in data set [2], the “GI50 FK866 with carbazole/GI50 FK866” value is reported as 1 and the “GI50 PTX/GI50 PTX with carbazole” value worked out at 3.8.

In the case of `Cc1cc(-n2c(C)ccc2C)c(C)c2c1[nH]c1ccc(Br)cc12` [Compound 9], the GI50 in data set [2] (setting [4]) was > 25 µM. In addition, in data set [2], the “GI50 FK866 with carbazole/GI50 FK866” value is recorded as 0.99 and the “GI50 PTX/GI50 PTX with carbazole” value was determined as 1.

In the case of `CCOC(=O)Oc1ccc2[nH]c3c(C)cc(-n4cccc4)c(C)c3c2c1` [Compound 10], the GI50 in data set [2] (setting [4]) turned out to be 25 µM. In addition, in data set [2], the “GI50 FK866 with carbazole/GI50 FK866” value turned out to be 1.1 and the “GI50 PTX/GI50 PTX with carbazole” value was 1.7.

Turning to `Cc1cc(-n2cccc2)c(C)c2c1[nH]c1ccc(O)cc12` [Compound 11], the GI50 in data set [2] (setting [4]) was > 25 µM. In data set [2], the “GI50 FK866 with carbazole/GI50 FK866” value came to 1.3 and the “GI50 PTX/GI50 PTX with carbazole” value is 1.5.

For the compound `Cc1cc(-n2c(C)ccc2C)c(C)c2c1[nH]c1ccc(Cl)cc12` [Compound 12], in data set [2] (setting [4]), the GI50 was 14 µM. In data set [2], the “GI50 FK866 with carbazole/GI50 FK866” value worked out at 1.09 and the “GI50 PTX/GI50 PTX with carbazole” value is given as 0.9.

For `Cc1cc(-n2ccc(C=O)c2)c(C)c2c1[nH]c1ccc(Cl)cc12` [Compound 13], the GI50 in data set [2] (setting [4]) was found to be 1 µM. Further, in data set [2], the “GI50 FK866 with carbazole/GI50 FK866” value is 1 and the “GI50 PTX/GI50 PTX with carbazole” value is 4.4.

For `Cc1cc(-n2ccc(C=O)c2)c(C)c2c1[nH]c1ccc(Br)cc12` [Compound 14], the GI50 in data set [2] (setting [4]) was determined as 1.2 µM. In data set [2], the “GI50 FK866 with carbazole/GI50 FK866” value is 1 and the “GI50 PTX/GI50 PTX with carbazole” value came out at 2.5.

As for `CCOC(=O)Oc1ccc2[nH]c3c(C)cc(-n4c(C)ccc4C)c(C)c3c2c1` [Compound 15], the GI50 in data set [2] (setting [4]) is > 25 µM. Moreover, in data set [2], the “GI50 FK866 with carbazole/GI50 FK866” value was 1.1 and the “GI50 PTX/GI50 PTX with carbazole” value amounted to 1.

Turning to `COc1cccc(NCC(F)Cn2c3ccc(Cl)cc3c3c(C)c(-n4cccc4)cc(C)c32)c1` (centres unmarked) [Compound 16], the GI50 in data set [2] (setting [4]) was > 25 µM. For the same compound, in data set [2], the “GI50 FK866 with carbazole/GI50 FK866” value amounted to 0.98 and the “GI50 PTX/GI50 PTX with carbazole” value is 1.2.

With `CC(=O)O[C@@]12CO[C@@H]1C[C@H](O)[C@@]1(C)C(=O)[C@H](O)C3=C(C)[C@@H](OC(=O)[C@H](O)[C@@H](NC(=O)OC(C)(C)C)c4ccccc4)C[C@@](O)([C@@H](OC(=O)c4ccccc4)[C@H]21)C3(C)C` [DTX, docetaxel, reference compound], in data set [2] (HeLa cells, 72 h), the “fold reduction of GI50 by addition of 12 μM Carba1” value amounted to 3.8 fold. For the same compound, the GI50 in data set [2] (setting [3]) amounted to 0.0011 ± 0.0002 µM.

With `C/C(=C\c1csc(C)n1)[C@@H]1C[C@@H]2O[C@]2(C)CCC[C@H](C)[C@H](O)[C@@H](C)C(=O)C(C)(C)[C@@H](O)CC(=O)O1` [Epo-B, epothilone-B, reference compound], the “fold reduction of GI50 by addition of 12 μM Carba1” value in data set [2] (HeLa cells, 72 h) was found to be 4.4 fold. In addition, in data set [2] (setting [3]), the GI50 amounted to 0.0005 ± 3e-05 µM.
